We go through six compounds from patent US20110183928A1 (BAYER SCHERING PHARMA AKTIENGESELLSCHAFT, priority 2008, published 2011).

Assay type in all cases: cell-based
Test [1] deals with T1, human mineralocorticoid receptor (MR) (Homo sapiens, UniProt P08235).
T1 construct: expressed in transfected cells; host or cells: CHO K1
T1 sequence (P08235 734-984 limits assumed): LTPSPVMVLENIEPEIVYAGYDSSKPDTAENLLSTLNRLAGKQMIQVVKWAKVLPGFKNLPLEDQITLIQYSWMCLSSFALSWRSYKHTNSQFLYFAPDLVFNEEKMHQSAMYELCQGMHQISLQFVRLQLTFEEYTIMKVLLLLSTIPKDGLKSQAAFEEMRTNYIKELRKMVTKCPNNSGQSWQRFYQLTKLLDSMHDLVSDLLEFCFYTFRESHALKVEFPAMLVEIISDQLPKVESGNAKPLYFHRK
The test can be described thus: Cellular in vitro assay, GAL4-MR chimera luciferase reporter in CHO K1 cells (inhibitory MR activity). To be noted: GAL4-MR ligand-binding domain chimera, agonist aldosterone. The source says: (§1) 1. Cellular In Vitro Assay to Determine the Inhibitory MR Activity and MR Selectivity Compared with Other Steroid Hormone Receptors
(§2) Antagonists of the human mineralocorticoid receptor (MR) are identified, and the efficacy of the compounds described herein is quantified with the aid of a recombinant cell line. The cell is originally derived from a hamster ovary epithelial cell (Chinese Hamster Ovary, CHO K1, ATCC: American Type Culture Collection, VA 20108, USA).
(§3) An established chimera system in which the ligand-binding domains of human steroid hormone receptors are fused to the DNA-binding domain of the yeast transcription factor GAL4 is used in this CHO K1 cell line. The GAL4-steroid hormone receptor chimeras produced in this way are cotransfected and stably expressed with a reporter construct in the CHO cells.
(§4) To generate the GAL4-steroid hormone receptor chimeras, the GAL4 DNA-binding domain (amino acids 1-147) from the vector pFC2-dbd (from Stratagene) is cloned with the PCR-amplified ligand-binding domains of the mineralocorticoid receptor (MR, amino acids 734-985), of the glucocorticoid receptor (GR, amino acids 443-777), of the progesterone receptor (PR, amino acids 680-933) and of the androgen receptor (AR, amino acids 667-919) into the vector pIRES2 (from Clontech). The reporter construct, which contains five copies of the GAL4 binding site upstream of a thymidine kinase promoter, leads to expression of firefly luciferase (Photinus pyralis) after activation and binding of the GAL4-steroid hormone receptor chimeras by the respective specific agonists aldosterone (MR), dexamethasone (GR), progesterone (PR) and dihydrotestosterone (AR).
(§5) The MR, GR, PR and AR cells are plated out in medium (Optimem, 2.5% FCS, 2 mM glutamine, 10 mM HEPES) in 96-well (or 384- or 1536-well) microtiter plates the day before the assay, and are kept in a cell incubator (96% air humidity, 5% v/v CO2, 37° C.). On the day of the assay, the substances to be tested are taken up in the abovementioned medium and added to the cells. About 10 to 30 minutes after addition of the test substances, the respective specific agonists of the steroid hormone receptors are added. After a further incubation time of 5 to 6 hours, the luciferase activity is measured with the aid of a video camera. The relative light units measured as a function of the substance concentration give a sigmoidal stimulation curve. The IC50 values are calculated with the aid of the computer program GraphPad PRISM (Version 3.02).
A general note: A reporter such as luciferase makes a cellular process visible.

Test [2] has as its target T2, glucocorticoid receptor (GR) (Homo sapiens, UniProt P04150).
T2 construct: of the glucocorticoid receptor (GR, amino acids 443-777); expressed in transfected cells; host or cells: CHO K1
T2 sequence (P04150 443-777): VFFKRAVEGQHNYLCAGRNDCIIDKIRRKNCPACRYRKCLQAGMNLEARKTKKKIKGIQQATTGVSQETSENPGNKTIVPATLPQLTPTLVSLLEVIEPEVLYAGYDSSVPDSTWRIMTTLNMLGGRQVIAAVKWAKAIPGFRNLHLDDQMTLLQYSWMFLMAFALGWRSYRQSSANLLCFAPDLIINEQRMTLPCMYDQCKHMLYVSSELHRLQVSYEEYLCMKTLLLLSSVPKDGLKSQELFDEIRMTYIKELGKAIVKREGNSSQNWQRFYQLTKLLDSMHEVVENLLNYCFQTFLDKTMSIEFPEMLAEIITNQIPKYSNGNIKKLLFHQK
In words: Cellular in vitro assay, GAL4-GR chimera luciferase reporter in CHO K1 cells (selectivity). Conditions: GAL4-GR ligand-binding domain chimera, agonist dexamethasone.
Description: as §1, §2, §3, §4, §5

For another test, the target named is T3, androgen receptor (AR) (Homo sapiens, UniProt P10275).
T3 construct: of the androgen receptor (AR, amino acids 667-919); expressed in transfected cells; host or cells: CHO K1
T3 sequence (P10275 667-919): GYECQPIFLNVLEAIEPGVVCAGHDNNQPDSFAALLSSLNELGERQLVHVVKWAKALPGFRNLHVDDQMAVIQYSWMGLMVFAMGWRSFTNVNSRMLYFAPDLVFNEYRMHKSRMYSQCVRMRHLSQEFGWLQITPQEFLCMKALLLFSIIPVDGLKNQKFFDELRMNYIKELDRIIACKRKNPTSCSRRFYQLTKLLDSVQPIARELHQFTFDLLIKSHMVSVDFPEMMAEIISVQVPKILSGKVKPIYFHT
In words: Cellular in vitro assay, GAL4-AR chimera luciferase reporter in CHO K1 cells (selectivity). To be noted: GAL4-AR ligand-binding domain chimera, agonist dihydrotestosterone.
Description: as §1, §2, §3, §4, §5

In test [3] the target is T4, progesterone receptor (PR) (Homo sapiens, UniProt P06401).
T4 construct: of the progesterone receptor (PR, amino acids 680-933); expressed in transfected cells; host or cells: CHO K1
T4 sequence (P06401 680-933): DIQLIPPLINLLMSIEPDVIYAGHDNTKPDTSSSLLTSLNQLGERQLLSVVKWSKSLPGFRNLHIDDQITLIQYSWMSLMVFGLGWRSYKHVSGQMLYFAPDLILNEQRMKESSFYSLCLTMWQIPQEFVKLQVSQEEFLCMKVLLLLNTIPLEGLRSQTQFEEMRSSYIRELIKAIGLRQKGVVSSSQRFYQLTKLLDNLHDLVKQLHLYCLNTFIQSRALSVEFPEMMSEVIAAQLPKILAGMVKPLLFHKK
The test can be described thus: Cellular in vitro assay, GAL4-PR chimera luciferase reporter in CHO K1 cells (selectivity). Conditions: GAL4-PR ligand-binding domain chimera, agonist progesterone.
Description: as §1, §2, §3, §4, §5

For `Cc1cccc2c(C(CCCC#N)c3ccc(C(F)(F)F)cc3)c[nH]c12` (single isomer, unassigned) [Example 8-1, 5-(7-Methyl-1H-indol-3-yl)-5-[4-(trifluoromethyl)phenyl]pentanenitrile], the IC50 (usually the midpoint of a concentration-inhibition curve) came to 200 nM in test [1], 5100 nM in test [2], 1530 nM at androgen receptor (AR) and 2710 nM in test [3].

Take `CCc1cccc2c(C(CCCC#N)c3ccc(C(F)(F)F)cc3)c[nH]c12` (single isomer, unassigned) [Example 4-1, 5-(7-Ethyl-1H-indol-3-yl)-5-[4-(trifluoromethyl)phenyl]pentanenitrile]: the IC50 in test [1] turned out to be 140 nM; in test [2] it was 2340 nM; at androgen receptor (AR), 2000 nM; in test [3], 1740 nM.

With `CCc1cccc2c(C(CCC#N)c3ccc4ccccc4c3)c[nH]c12` (stereo not shown) [Example 34], the IC50 in test [1] amounted to 90 nM; in test [2], 390 nM; on androgen receptor (AR) it was 4200 nM; in test [3], 3350 nM.

For the compound `CCc1cccc2c(C(CCCO)c3ccc(C(F)(F)F)cc3)c[nH]c12` (single isomer, unassigned) [Example 3-1, 4-(7-Ethyl-1H-indol-3-yl)-4-[4-(trifluoromethyl)phenyl]butan-1-ol], the IC50 in test [1] worked out at 420 nM; in test [2], 6470 nM; at androgen receptor (AR) it was 3650 nM; in test [3] it was 5870 nM.

As for `CS(=O)(=O)Nc1cccc2c(C(CCC#N)c3ccc(C(F)(F)F)cc3)c[nH]c12` (single isomer, unassigned) [Example 17-1], the half-maximal inhibitory concentration (IC50) in test [1] is 20 nM; in test [2] it was 2210 nM; on androgen receptor (AR), 2270 nM; in test [3], 4500 nM.

In the case of `CS(=O)(=O)Nc1cccc2c(C(CCO)c3ccc(C(F)(F)F)cc3)c[nH]c12` (stereo not shown) [Example 16, N-(3-{3-Hydroxy-1-[4-(trifluoromethyl)phenyl]propyl}-1H-indol-7-yl)methanesulfonamide], the IC50 in test [1] amounted to 330 nM; in test [2] it was 700 nM.
